Laboratory results reported in PMC4667195, “Tumor-selective peptide-carrier delivery of Paclitaxel increases in vivo activity of the drug” (Scientific Reports, 2015).

Key:
[1] = tested on: MDA-MB 231 human breast adenocarcinoma cells; assay: Cytotoxicity (MTT growth inhibition) in MDA-MB 231; type: cell-based; settings: 1 h incubation, wash, then 6 days at 37 °C without drug, 128 pM to 10 μM, performed twice in triplicate
Method: (§1) Growth inhibition was assessed by 3-(4,5-dimethylthiazol-2-yl)-2,5-diphenyltetrazolium bromide (MTT). […] The experiment was performed twice in triplicate.
(§2) EC50 values were calculated by non-linear regression analysis using Graph Pad Prism 5.03 software.

[2] = tested on: orthotopic MDA-MB 231-luc2 tumors; assay: Tumor growth in orthotopic MDA-MB 231-luc2 mouse model; type: in vivo, athymic nude mice; settings: 2.86 μmol/Kg i.v. every 4 days
Method: MDA-MB 231-luc2 cells were injected orthotopically in the mammary fat pads of female athymic nude mice. […] Tumor growth was monitored by measuring volumes every 4 days with a caliber rule and by imaging luciferase reporter expression in tumor cells with a Photon Imager system at 8-day intervals.
Orthotopic breast tumors were established by injecting 1 × 10^6 MDA-MB 231-luc2 cells into the fourth mammary fat pad of athymic nude mice (Harlan Laboratories). Tumor growth was monitored every four days by measuring two perpendicular diameters with caliber. Tumor volume (V) was calculated by the following equation: V = (a^2 × b)/2, where “a” is the width of the tumor (small diameter), and b the length (large diameter), both in millimeters[22].
Treatments were started when the tumors reached at least 80 mm^3 in volume.
Tumor growth was also monitored by imaging luciferase reporter expression in tumor cells. To track MDA-MB 231-luc2 cells, bioluminescent optical imaging was performed using a Photon Imager system (Biospace Lab, Paris, France) including a cooled charge-coupled device (CCD) camera. Prior to imaging, mice were anaesthetized by intraperitoneal (i.p.) injection of 275 mg/kg Avertin. […] Bioluminescence was quantified by automatic measurement. ROI optical images were analyzed with M3 Vision software (Biospace Lab, Paris, France).

[3] = tested on: SKOV-3 human ovary adenocarcinoma cells; assay: Cytotoxicity (MTT growth inhibition) in SKOV-3; type: cell-based; settings: SK-OV-3, 1 h incubation, wash, then 6 days at 37 °C without drug, 128 pM to 10 μM, performed twice in triplicate
Method: as §1, §2

For `CC(=O)O[C@H]1C(=O)[C@@]2(C)[C@H]([C@H](OC(=O)c3ccccc3)[C@]3(O)C[C@H](OC(=O)[C@H](O)[C@@H](NC(=O)c4ccccc4)c4ccccc4)C(C)=C1C3(C)C)[C@]1(OC(C)=O)CO[C@@H]1C[C@@H]2O` [PTX, Paclitaxel], the EC50 [1] was 62 nM, the “Slope of average tumor volume (percentage of the volume at day 4) versus time” value ([2]; days 4, 8, 12 and 16, n = 5 mice) was 5.5 and the “Effect on tumor growth (in words)” value ([2]; during treatment, days 4 to 16) was “clear reduction in tumor growth with respect to controls, but not tumor regression”. For the same compound, the EC50 [3] was 29 nM.
